Laboratory results published in the OligoGym collection.
Where “and” joins values, the source holds several entries; their conditions need not be identical. Identical values can stand only once. After the bases stand the sugars from the 5' end (letter, count) and the backbone: PS all phosphorothioate, else s phosphorothioate and o phosphodiester by linkage. Methylation of C is not given here. e = 2'-O-(2-methoxyethyl) (MOE); k = constrained ethyl (cEt); d = 2'-deoxy (DNA)

Target: IRF4
Settings: ASO

Sequence	target mRNA inhibition (SK-MEL-28, 4 µM)	target mRNA inhibition (MM.1R, 1 µM)	also measured
CTCCTTTTTTGGCTCC (sugars k4 d8 k4, PS)	7%		
CTCTATAGTGTTCCAG (sugars k3 d9 k3 e1, PS)		65%	target mRNA inhibition (MM.1R, 0.074 µM): 14%; target mRNA inhibition (MM.1R, 0.222 µM): 30%; target mRNA inhibition (MM.1R, 0.666 µM): 54%; target mRNA inhibition (MM.1R, 2 µM): 76%
CTCTATAGTGTTCCAG (sugars kkdddddddddkekek, PS)		22%	
CTCTGCTCTGCACTCG (sugars k3 d10 k3, PS)	41%		
CTCTTACTCCGCTGAG (sugars k3 d10 k3, PS)	-5%		
CTGAAACGGTCAGCAG (sugars k3 d10 k3, PS)		3%	
CTGAAAGCGAGTCAGA (sugars k3 d10 k3, PS)		6%	
CTGAACTGAAATCTCC (sugars k3 d10 k3, PS)	64% and 63%		
CTGAACTGTGTAACTC (sugars k3 d10 k3, PS)	28%		
CTGAGACTACACCTAC (sugars k3 d10 k3, PS)		-40%	
CTGAGTTACCGCATTG (sugars k3 d10 k3, PS)		49% and 54%	
CTGATCGCTGGACAGC (sugars k3 d10 k3, PS)	20%		
CTGCACTCGCCCTGGA (sugars k3 d10 k3, PS)	42%		
CTGCAGCCAAGGATAA (sugars k3 d10 k3, PS)	48%		
CTGCATCAAATCAAGT (sugars k3 d10 k3, PS)	47%		
CTGCATTTGCAAATAA (sugars k4 d8 k4, PS)	-8%		
CTGCCAAGTTGAAGAC (sugars k3 d10 k3, PS)		33%	
CTGCTTGAGGTTTTCC (sugars kddddddddddkekek, PS)		8%	
CTGCTTGAGGTTTTCC (sugars kkdddddddddkdkdk, PS)		36%	
CTGGAACATTGTTGGA (sugars k3 d10 k3, PS)	46%		
CTGGAGAGCAATGAAC (sugars k3 d10 k3, PS)	67%		
CTGGAGTGAACCCTTC (sugars k3 d10 k3, PS)	56%		
CTGGCATCGAGACGGG (sugars k3 d10 k3, PS)	47%		
CTGGCTCCGCTCAACC (sugars k3 d10 k3, PS)	52%		
CTGTAACTGACTAACA (sugars k3 d10 k3, PS)	23%		

Sequence	target mRNA inhibition (SK-MEL-28, 4 µM)	target mRNA inhibition (MM.1R, 1 µM)	also measured
CTGTAGGATTTTACAT (sugars k3 d10 k3, PS)	24%		
CTGTAGTATGAGAAAC (sugars k3 d10 k3, PS)	45%		
CTGTTACCGATGCTTC (sugars kddddddddddkekek, PS)		36% and 26%	
CTGTTAGCTACAAAGA (sugars k3 d10 k3, PS)	56%		
CTTAGAATGCATAACA (sugars k3 d10 k3, PS)	26%		
CTTAGGCACATCAATG (sugars k3 d10 k3, PS)		8%	
CTTATAGCACTCTCCT (sugars k3 d10 k3, PS)	33%		
CTTCACTCAGCAAGTG (sugars k3 d10 k3, PS)	43%		
CTTCATCAGACTAAGT (sugars k3 d10 k3, PS)	31%		
CTTCTTCTTTATGCGA (sugars k3 d10 k3, PS)	66%		
CTTGATAAAGGCTGAA (sugars k2 d9 e3 k2, PS)		10%	
CTTGATAAAGGCTGAA (sugars k3 d9 k3 e1, PS)		36%	
CTTGATAAAGGCTGAA (sugars kkdddddddddekeke, PS)		19%	
CTTGATAAAGGCTGAA (sugars kkkddddddddkekek, PS)		12%	
CTTGCCAGTGGTGGCC (sugars k4 d8 k4, PS)	-9%		
CTTGCCGCTGTCGATC (sugars k3 d10 k3, PS)	25%		
CTTGGAGAAGTCCCGT (sugars k3 d10 k3, PS)	39%		
CTTGTTCAAAGCGCAC (sugars k3 d10 k3, PS)	32%		
CTTTAGCCCATGCTCC (sugars k3 d10 k3, PS)	20%		
CTTTATGCGAAGAATT (sugars k3 d10 k3, PS)	30%		
CTTTCACTAAAGTCAA (sugars k3 d10 k3, PS)	51%		
CTTTTTTGGCTCCCTC (sugars k3 d10 k3, PS)	36%		
GAAAACAGCCGCCGGC (sugars k3 d10 k3, PS)	26%		
GAAAATCTGGATGAGC (sugars k3 d10 k3, PS)	64%	22%	target mRNA inhibition (MM.1R, 0.0625 µM): 7%; target mRNA inhibition (MM.1R, 0.074 µM): 11%; target mRNA inhibition (MM.1R, 0.222 µM): -1%; target mRNA inhibition (MM.1R, 0.25 µM): 8%; target mRNA inhibition (MM.1R, 0.666 µM): -26%; target mRNA inhibition (MM.1R, 4 µM): 59%
GAAACCGCTGGCAGGT (sugars k3 d10 k3, PS)	50%		

Sequence	target mRNA inhibition (SK-MEL-28, 4 µM)	target mRNA inhibition (MM.1R, 1 µM)	also measured
GAAAGGAGGTAGTGGC (sugars k3 d10 k3, PS)	23%		
GAAATACGACAACTTT (sugars k3 d10 k3, PS)	22%		
GAACAATCCTGTACAC (sugars k3 d10 k3, PS)	-5%		
GAACAATCCTGTACAC (sugars k4 d8 k4, PS)	0%		
GAACACACCACTATTC (sugars k3 d10 k3, PS)		-20%	
GAACAGATAGTTAAGT (sugars k3 d10 k3, PS)	17%		
GAACAGGAAGCCACTA (sugars k3 d10 k3, PS)	23%		
GAACAGGACCTGGTCC (sugars k3 d10 k3, PS)	25%		
GAACATCTCAGATACA (sugars k3 d10 k3, PS)	42%		
GAACCTGCTGGGCTGG (sugars k4 d8 k4, PS)	13%		
GAACGAGGTAAATCTT (sugars k3 d10 k3, PS)	56%		
GAAGAATTTTAGCATC (sugars k3 d10 k3, PS)	56%		
GAAGCACTGGCATTGA (sugars k3 d10 k3, PS)	55%		
GAAGCATTTTATCATC (sugars k3 d9 k3 e1, PS)		1%	
GAAGCATTTTATCATC (sugars kdddddddddkekeke, PS)		4%	
GAAGCATTTTATCATC (sugars kkdddddddddkekek, PS)		-20%	
GAAGCATTTTATCATC (sugars kkkdddddddddkeke, PS)		8%	
GAAGCATTTTATCATC (sugars kkkddddddddkekek, PS)		-5%	
GAAGCTTAGTTATCTG (sugars k3 d10 k3, PS)		45% and 39%	
GAAGTTTACACTGGAT (sugars k2 d9 e3 k2, PS)		28%	
GAAGTTTACACTGGAT (sugars kkdddddddddkekek, PS)		55%	target mRNA inhibition (MM.1R, 0.074 µM): 6%; target mRNA inhibition (MM.1R, 0.222 µM): 22%; target mRNA inhibition (MM.1R, 0.666 µM): 49%; target mRNA inhibition (MM.1R, 2 µM): 75%
GAATGCATAACACGGT (sugars k3 d10 k3, PS)	61%		
GAATGCTCTCCATCAA (sugars k3 d10 k3, PS)	45%		
GAATGGCGAGTTGGCA (sugars k3 d10 k3, PS)		39% and 40%	
GAATGGCGCATAGGTC (sugars k3 d10 k3, PS)		26%	
